In PubChem BioAssay AID1963442 (Molecular Pharmacology Branch, DTP, NCI, 2024):
“And” between values parts separate entries of the source, which are not always exact repeats. Equal values may be shown once.

Tested on: MPNST complex spheroid with HUVEC/MSC, growth, % test/control
Test: Anticancer human tumor MPNST cell line growth inhibition [Asc];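 further: compounds left on spheroids for seven days before reading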
Details: for viability, T/C: stronger effect = lower value; active means viability on the fitted dose curve at most 10% of control; inactive means the rest
In short: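 Concentration series start at each agent's clinical Cmax, or at 10 microM when none is established, and drop in half-log steps; agents are applied alone or together to complex spheroids built with HUVEC and hMSC.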

[1] = curve of first compound, second compound 0.1 µM
[2] = curve of first compound, second compound 0.316 µM
[3] = curve of first compound, second compound 1 µM
[4] = curve of first compound, second compound 3.16 µM
[5] = curve of first compound, second compound 10 µM

C=C(F)C(=O)N1CCN(c2nc(OCC3CCCN3C)nc3c2CCN(c2cccc4cccc(Cl)c24)C3)CC1CC#N (configuration not stated) + Cc1c(S(C)(=O)=O)c(-c2cc(F)cc(N3CCN(c4ccc(NS(=O)(=O)c5ccc(NC(CCN6CCC(C(=O)OCCCP(=O)(O)O)CC6)CSc6ccccc6)c(S(=O)(=O)C(F)(F)F)c5)cc4)CC3)c2)c(-c2ccc(Cl)cc2)n1C(C)C
2.88 µM: IC50 [3]
1.98 µM: IC50 [4]
inactive: viability, T/C (second compound 0.1 µM, first compound 0.0316 µM) 65.5% | viability, T/C (second compound 0.1 µM, first compound 0.1 µM) 66.2% | viability, T/C (second compound 0.1 µM, first compound 0.316 µM) 69.8% | viability, T/C (second compound 0.1 µM, first compound 1 µM) 81.1% | viability, T/C (second compound 0.1 µM, first compound 3.16 µM) 74.7% | viability, T/C (second compound 0.1 µM, first compound 10 µM) 51.3% | viability, T/C (second compound 0.316 µM, first compound 0.0316 µM) 67.2% | viability, T/C (second compound 0.316 µM, first compound 0.1 µM) 61.1% | viability, T/C (second compound 0.316 µM, first compound 0.316 µM) 69.6% | viability, T/C (second compound 0.316 µM, first compound 1 µM) 58% | viability, T/C (second compound 0.316 µM, first compound 3.16 µM) 52.4% | viability, T/C (second compound 0.316 µM, first compound 10 µM) 36.2% | viability, T/C (second compound 1 µM, first compound 0.0316 µM) 73.5% | viability, T/C (second compound 1 µM, first compound 0.1 µM) 75.4% | viability, T/C (second compound 1 µM, first compound 0.316 µM) 67.6% | viability, T/C (second compound 1 µM, first compound 1 µM) 53.9% | viability, T/C (second compound 1 µM, first compound 3.16 µM) 53.5% | viability, T/C (second compound 1 µM, first compound 10 µM) 41.1% | viability, T/C (second compound 3.16 µM, first compound 0.0316 µM) 78.2% | viability, T/C (second compound 3.16 µM, first compound 0.1 µM) 70% | viability, T/C (second compound 3.16 µM, first compound 0.316 µM) 64.5% | viability, T/C (second compound 3.16 µM, first compound 1 µM) 57.3% | viability, T/C (second compound 3.16 µM, first compound 3.16 µM) 46.2% | viability, T/C (second compound 3.16 µM, first compound 10 µM) 32.7% | viability, T/C (second compound 10 µM, first compound 0.0316 µM) 53.5% | viability, T/C (second compound 10 µM, first compound 0.1 µM) 65.8% | viability, T/C (second compound 10 µM, first compound 0.316 µM) 71.2% | viability, T/C (second compound 10 µM, first compound 1 µM) 64.4% | viability, T/C (second compound 10 µM, first compound 3.16 µM) 50.8% | viability, T/C (second compound 10 µM, first compound 10 µM) 30.3%
3.72 µM: IC50 [2]
3.3 µM: IC50 [5]
> 10 µM: IC50 [1]

Cc1nc(N2CCC3(CC2)COC(C)C3N)c(CO)nc1Sc1ccnc(N)c1Cl (configuration not stated) + Cc1c(S(C)(=O)=O)c(-c2cc(F)cc(N3CCN(c4ccc(NS(=O)(=O)c5ccc(NC(CCN6CCC(C(=O)OCCCP(=O)(O)O)CC6)CSc6ccccc6)c(S(=O)(=O)C(F)(F)F)c5)cc4)CC3)c2)c(-c2ccc(Cl)cc2)n1C(C)C
> 3 µM: IC50 [1] | IC50 [2] | IC50 [3] | IC50 [4] | IC50 [5]
inactive: viability, T/C (second compound 0.1 µM, first compound 0.00949 µM) 117% | viability, T/C (second compound 0.1 µM, first compound 0.03 µM) 152% | viability, T/C (second compound 0.1 µM, first compound 0.0949 µM) 143% | viability, T/C (second compound 0.1 µM, first compound 0.3 µM) 121% | viability, T/C (second compound 0.1 µM, first compound 0.949 µM) 104% | viability, T/C (second compound 0.1 µM, first compound 3 µM) 112% | viability, T/C (second compound 0.316 µM, first compound 0.00949 µM) 130% | viability, T/C (second compound 0.316 µM, first compound 0.03 µM) 136% | viability, T/C (second compound 0.316 µM, first compound 0.0949 µM) 157% | viability, T/C (second compound 0.316 µM, first compound 0.3 µM) 125% | viability, T/C (second compound 0.316 µM, first compound 0.949 µM) 117% | viability, T/C (second compound 0.316 µM, first compound 3 µM) 79.5% | viability, T/C (second compound 1 µM, first compound 0.00949 µM) 121% | viability, T/C (second compound 1 µM, first compound 0.03 µM) 148% | viability, T/C (second compound 1 µM, first compound 0.0949 µM) 126% | viability, T/C (second compound 1 µM, first compound 0.3 µM) 135% | viability, T/C (second compound 1 µM, first compound 0.949 µM) 96.2% | viability, T/C (second compound 1 µM, first compound 3 µM) 93.6% | viability, T/C (second compound 3.16 µM, first compound 0.00949 µM) 136% | viability, T/C (second compound 3.16 µM, first compound 0.03 µM) 141% | viability, T/C (second compound 3.16 µM, first compound 0.0949 µM) 164% | viability, T/C (second compound 3.16 µM, first compound 0.3 µM) 108% | viability, T/C (second compound 3.16 µM, first compound 0.949 µM) 117% | viability, T/C (second compound 3.16 µM, first compound 3 µM) 88.3% | viability, T/C (second compound 10 µM, first compound 0.00949 µM) 175% | viability, T/C (second compound 10 µM, first compound 0.03 µM) 159% | viability, T/C (second compound 10 µM, first compound 0.0949 µM) 153% | viability, T/C (second compound 10 µM, first compound 0.3 µM) 108% | viability, T/C (second compound 10 µM, first compound 0.949 µM) 125% | viability, T/C (second compound 10 µM, first compound 3 µM) 94.4%

O=C(c1cc(Cc2n[nH]c(=O)c3ccccc23)ccc1F)N1CCN(C(=O)C2CC2)CC1
inactive: viability, T/C (compound 0.0316 µM) 89.3% and 114% and 79.2% | viability, T/C (compound 0.1 µM) 103% and 78.6% and 69.5% | viability, T/C (compound 0.316 µM) 109% and 60.3% and 96.9% | viability, T/C (compound 1 µM) 83.9% and 63.7% and 82.7% | viability, T/C (compound 3.16 µM) 71.8% and 70.9% and 40.7% | viability, T/C (compound 10 µM) 77.1% and 48.1% and 34.8%
> 10 µM and 2.44 µM: IC50 (curve of compound)
